From US9408854B2, “Methods and systems for pharmacogenomic treatment of cardiovascular conditions” (ROSTAQUO S.P.A., priority 2009, dated 2016)

System: hypertensive patients
Experiment: Two separate studies: blood pressure change with HCTZ, Losartan and rostafuroxin in patients carrying profile 4, 8 or 9
Assay type: in vivo, human
Conditions: preliminary data
Description: In particular, individuals carrying profile 4 show a modification in blood pressure of: −12.3±1.5 mmHg with HCTZ; −11.3±1.7 with Losartan and −18.74±1.8 mmHg with rostafuroxin; individuals with profile 8 show the a decrease in blood pressure of −11.3±1.2 with HCTZ; −11.6±1.3 with Losartan and −15.2±1.5 mmHg with rostafuroxin; individuals with profile 9 show the a decrease in blood pressure of −11.9±1.2 with HCTZ; −11.4±1.4 with Losartan and −15.2±1.5 mmHg with rostafuroxin.

`C[C@]12CC[C@H](O)C[C@H]1CC[C@@H]1[C@@H]2CC[C@]2(C)[C@@](O)(c3ccoc3)CC[C@]12O` [rostafuroxin, 17β-(3-furyl)-5β-androstane-3β,14β,17α-triol] was tested, and the “modification in blood pressure” value (individuals carrying profile 4) was −18.74±1.8 mmHg, the “decrease in blood pressure” value (individuals with profile 8) was −15.2±1.5 mmHg and the “decrease in blood pressure” value (individuals with profile 9) was −15.2±1.5 mmHg.
